Entries after “also recorded” stand apart in the source; their conditions may differ. Where two headings read alike, the source gives them in different places.
Assays:
[1] = test system: primary fetal rat osteoblasts; assay: Proliferation (cell number, [3H]-thymidine incorporation) of fetal rat osteoblast-like cells; type: cell-based
Method: Osteoblast-Like Cell Culture. Osteoblasts were isolated from 20 day fetal rat calvariae as previously described (Cornish et al. (1999) American Journal of Physiology Endocrinology & Metabolism 277: E779-E783). Briefly, calvariae were excised and the frontal and parietal bones, free of suture and periosteal tissue, were collected. The calvariae were sequentially digested using collagenase and the cells from digests 3 and 4 were collected, pooled and washed. Cells were grown to confluence and then subcultured into 24 well plates. Cells were growth arrested in minimum essential medium (MEM)/0.1% bovine serum albumin for 24 h. Fresh media and experimental compounds were added for a further 24 h. Cells were pulsed with tritiated-thymidine two hours before the end of the experimental incubation. The effect of preptin on proliferation of fetal rat osteoblast-like cells was first assessed by the measurement of cell numbers. The effect of preptin on DNA synthesis in osteoblasts was then assessed by the measurement of [^3H]-thymidine incorporation into isolated fetal rat osteoblast-like cells. There were 6 wells in each group and each experiment was repeated 3 or 4 times.

[2] = test system: murine bone marrow cultures; assay: Osteoclastogenesis assay in murine bone marrow cultures (TRAP-positive multinucleated cells); type: cell-based, mouse; settings: various concentrations; 7 days; with 1α,25-dihydroxyvitamin D3; FIG. 4
Method: The effects of preptin on the development of osteoclasts was also examined. To assess osteoclast development, bone marrow is obtained from the long bones of normal mice, aged 4-6 weeks and cultured. Non-adherent cells are removed and the cultures are grown in the presence of 1α,25-dihydroxyvitamin D3 throughout the experiment. The cultures were maintained for 7 days and the number of tartrate-resistant acid phosphatase-positive multinucleated cells was assessed. An osteoclastogenesis assay was performed with murine bone marrow cultures in the presence of various concentrations of rat preptin. The number of tartrate-resistant acid phosphatase (TRAP)-positive multinucleated cells was assessed (FIG. 4).

[3] = test system: murine neonatal calvarial organ culture; assay: Thymidine incorporation in murine neonatal calvarial organ culture; type: cell-based, mouse; settings: FIG. 3 (rat preptin, two concentrations)
[4] = test system: murine neonatal calavarial organ culture system; assay: Bone resorption in murine neonatal calvarial organ culture; type: cell-based, mouse; settings: data not shown
primary rat osteoblasts = assay: TUNEL assay of apoptosis in serum-deprived primary rat osteoblasts; type: cell-based; settings: 10^−8 M; apoptosis induced by serum deprivation; 18 h; FIG. 6
Method: Immunoblotting (Cell Signalling Methods). Primary rat osteoblasts prepared as described above were seeded in 6-well tissue culture plates at an initial density of 5×10^4 cells/mL in MEM 5% FCS, and grown to 80-90% confluence. After serum starvation overnight, cells were treated at room temperature with test substances in MEM 0.1% BSA. In experiments designed to determine the effect of inhibitors of signal transduction on preptin-induced p42/44 MAP kinase phosphorylation, the cells were pre-treated with the inhibitor for 30 min prior to addition of test substances. The exception was pertussis toxin, which was added 18 h prior to test substances. […] The lysates were briefly vortexed, clarified by centrifugation at 13,000 rpm at 4° C., then stored at −70° C. until analyzed. Protein content of the cell lysates was measured using the DC protein assay (BioRad, Hercules, Calif.). […] Incubation with the HRP-conjugated secondary antibody was for 1 h at room temperature, and the membranes were analyzed by ECL. […] Apoptosis in cultures of primary rat osteoblasts was assessed using the TUNEL method (DeadEnd™, Promega, Madison, Wis.) according to the manufacturer's instructions. […] After counterstaining with hematoxylin, the number of apoptotic nuclei per microscopic field was counted and expressed as a proportion of that observed in the cells exposed to serum starvation throughout the entire treatment period. […]

[5] = test system: long-term osteoblast cultures; assay: Osteoblast differentiation, mineralized bone nodules in long-term osteoblast cultures; type: cell-based; settings: 10^−8M
[6] = test system: sexually mature male mice; assay: Local subcutaneous injection over the hemicalvaria, histomorphometry; type: in vivo; settings: for Bone Area, Mean ± Std Error: twice daily s.c. over right hemicalvaria; for Bone Area, Mean ± Std Error / % Mineralizing Surface/Total Bone Surface, Mean ± Std Error: 5 days; for % Mineralizing Surface/Total Bone Surface, Mean ± Std Error: twice daily s.c.
Method: Three groups of sexually mature male mice were given twice daily subcutaneous injections over the right hemicalvaria for 5 consecutive days. Two groups received one of 2 doses of preptin (0.825 μg or 8.25 μg per injection), and a further […] received vehicle. The animals were sacrificed 1 week following the last injection. Fluorochrome labels were injected subcutaneously at the base of the tail on days 1 (calcein), 5 (alizarin red) and 14 (calcein) to measure dynamic histomorphometric indices (such as, extent of mineralizing surface). Calvariae were excised, fixed in 10% neutral-buffered formalin, dehydrated and embedded in methylmethacrylate resin. Sections were cut, mounted on gelatin-coated slides, and histomorphometric indices measured using image analysis.

[7] = test system: isolated, perfused rat pancreas; settings: infusion into isolated, Buchanan et al. 2001; cited from earlier work
[8] = primary osteoblasts pre-treated with inhibitor, FIG. 5A, 5B
[9] = high dose, 16.5 micrograms daily for five days, local s.c. injection

N#CC(=C(/N)Sc1ccccc1N)/C(C#N)=C(\N)Sc1ccccc1N [U-0126]
effect of inhibitor pre-treatment on the proliferative effects of preptin [1]: blocked

COc1cccc(-c2cc(=O)c3ccccc3o2)c1N [PD-98059]
effect of inhibitor pre-treatment on the proliferative effects of preptin [1, 8]: blocked

pertussis toxin
effect of inhibitor pre-treatment on the proliferative effects of preptin [1, 8]: blocked

DVSTSQAVLPDDFPRYPVGKFFKFDTWRQSAGRL (Rattus) [rat preptin]
osteoclast development (number of TRAP-positive multinucleated cells) [2]: did not affect osteoclast development

preptin: 34-amino acid peptide corresponding to Asp69-Leu102 of proinsulin-like growth factor II; species form not always stated
concentrations stimulating proliferation (cell number and DNA synthesis) ([1]; dose-dependent, primary fetal rat osteoblasts and osteoblast-like cell lines, 24 h, FIGS. 1 and 2 (rat and human preptin)): > 10^−11 M
thymidine incorporation [3]: stimulated
bone resorption [4]: did not affect bone resorption
apoptosis, treatment/control ratio (primary rat osteoblasts): 0.78±0.08
osteoblast differentiation, number of mineralized bone nodules [5]: significantly increasing the number of mineralized bone nodules
Bone Area, Mean ± Std Error ([6]; high dose (8.25 μg per injection), P = 0.013 vs control 1.028 ± 0.023): *1.084 ± 0.017
% Mineralizing Surface/Total Bone Surface, Mean ± Std Error ([6]; high dose (8.25 μg per injection), P = 0.046 vs control 1.048 ± 0.013): *1.119 ± 0.032%
bone area compared to control (in words) [6, 9]: significant increase; also recorded: increased
mineralizing surface compared to control (in words) [6, 9]: significant increase; also recorded: increased
Bone Area, Mean ± Std Error ([6]; low dose (0.825 μg per injection), control 1.028 ± 0.023): 1.083 ± 0.027
% Mineralizing Surface/Total Bone Surface, Mean ± Std Error ([6]; low dose (0.825 μg per injection), control 1.048 ± 0.013): 1.065 ± 0.033%
second phase of insulin secretion [7]: significant increase

Reference: patent US20060116318A1, “Preptin methods of use” (priority 2002, published 2006)
